Source: US20180369203A1, “METHODS OF TREATING CANCER BY ADMINISTERING A MEK INHIBITOR IN COMBINATION WITH A PROTEASOME INHIBITOR” (The Jackson Laboratory, priority 2015, published 2018)

How the values were obtained:
A2058 cells = assay: Experimental melanoma metastasis, i.v. luciferase-expressing A2058 cells in NOD/SCID mice; assay type: in vivo; conditions: n=10 per group
Protocol: FIGS. 6A-N show combined MEK and proteasome inhibition exerts potent tumor-suppressive effects. (A) After treatments with 20 nM AZD6244, 100 nM Bortezomib, or both for 24 hr, viable cells were quantitated by CellTiter® Blue (mean±SD, n=6, ANOVA). (B and C) 1×10^6 A2058 cells were s.c. injected into NOD/SCID mice. After 7 days, mice were treated with DMSO, 5 mg/Kg AZD6244, 0.5 mg/Kg Bortezomib, or the combination via i.p. injection three times a week. Tumor volumes were measured using a caliper weekly (mean±SEM, ANOVA). Tumor growth curves were fitted to exponential growth models to derive tumor-doubling time (DT). Kaplan-Meier survival curve was plotted for each group (Log-rank test). (D) Proteins were detected by immunoblotting, 3 tumors per group. (E) Tumor lysates were used to quantitate AOs, 5 tumors per group (mean±SD, n=3, ANOVA). (F) Tumor lysates were used to seed Aβ1-42 peptides, 5 tumors per group (mean±SD, n=3, ANOVA). (G-H) Tumor sections were stained with CR, 5 tumors per group. […] Total CR fluorescence in each field was quantitated using ImageJ and normalized against total nuclei (median, n=50, ANOVA). […] Body weights were monitored weekly (mean±SD, n=10, ANOVA). […]
A2058 cells were s.c. injected into the left flanks of 9-week-old female NOD.CB17-Prkdc/J (NOD/SCID) mice (The Jackson Laboratory). […] Tumor volumes were calculated following the formula 4/3πR^3. […]

WM115 cells = assay: Lys48 ubiquitin immunostaining of aggregates in melanoma cells; assay type: cell-based, human; conditions: 20 nM AZD6244, 100 nM Bortezomib, or both, 24 hr
Protocol: FIGS. 5A-Y show MEK and proteasome inhibition provoke protein aggregation and amyloidogenesis. (A-B) WM115 cells treated with 20 nM AZD6244, 100 nM Bortezomib, or both for 24 hr were stained with Lys48-specific ubiquitin antibodies. Arrowheads mark ubiquitin-positive aggregates. Scale bar: 10 μm. Amounts of aggregates per cell were quantitated using ImageJ (median, n≥100, ANOVA). (C-F) Following transfection with polyQ79 plasmids alone or with both polyQ79 and HSF1^S326D plasmids for one day, HEK293T cells were treated with inhibitors as described in (A-B). Cells were either analyzed for aggregate size or stained with 10 μM ThT. (G) Treated tumor cell lines were stained with 10 μM ThT. Geometric means were used to calculate fold changes in ThT fluorescence intensity and the log 2(FC) values were presented as a heat map. (H) HEK293T cells were transfected with LacZ or polyQ79 plasmid. Following treatments, AOs were quantitated by ELISA using A11 antibodies (mean±SD, n=3, ANOVA). (I) Intrinsic AOs were detected in human tumor cell lines (mean±SD, n=3, ANOVA). […] Amyloids were quantitated by ELISA (mean±SD, n=3, Student's t-test). […] AF formation was monitored by ThT binding (mean±SD, n=3, ANOVA). […] Amyloids were quantitated (mean±SD, n=3, Student's t-test). […] Viable cells were quantitated by CellTiter® blue (mean±SD, n=6, Student's t-test). […] Viable cells were quantitated (mean±SD, n=6, ANOVA). […]

For `CC(C)C[C@H](NC(=O)[C@H](Cc1ccccc1)NC(=O)c1cnccn1)B(O)O` [Bortezomib, bortezomib], which “mice with luminescence detected by in vivo imaging” value (A2058 cells) is on record?
The value was 40%.

What about the “ubiquitin-containing aggregates (punctate foci)” value (WM115 cells) of the same molecule?
Its value is “bright fluorescent punctate foci emerged”.
